Reference: patent US8119112B2, “Ophthalmic compositions with an amphoteric surfactant and hyaluronic acid” (Bausch & Lomb Incorporated, priority 2008, dated 2012)

Experiment: Precipitate formation of polyquaternium-1 with hyaluronic acid
Assay type: physicochemical
Excerpt: One of the more common quaternary ammonium compounds is α-[4-tris(2-hydroxyethyl)-ammonium chloride-2-butenyl]poly[1-dimethyl ammonium chloride-2-butenyl]-ω-tris(2-hydroxyethyl) ammonium chloride, also referred to in the art as polyquaternium-1. Quaternary ammonium compounds are generally referred to in the art as “polyquaternium” disinfectants, and are identified by a particular number following the designation such as polyquaternium-1, polyquaternium-10 or polyquaternium-42. Polyquaternium-1 is present in the ophthalmic compositions from 0.5 ppm to 3 ppm. […] The precipitate is believed to be the complexation product of hyaluronic acid and polyquaternium-1.

With “α-[4-tris(2-hydroxyethyl)-ammonium chloride-2-butenyl]poly[1-dimethyl ammonium chloride-2-butenyl]-ω-tris(2-hydroxyethyl) ammonium chloride [polyquaternium-1]” the “concentration of polyquaternium-1 in the compositions that results in formation of a precipitate” value was > 3 ppm.
